Publication PMC5175396, “Cytotoxicity of Plumbagin, Rapanone and 12 other naturally occurring Quinones from Kenyan Flora towards human carcinoma cells” (BMC Pharmacology & Toxicology, 2016)

What was measured:
caspase 9 in MCF-7 cells = test: Caspase-Glo 9 assay; type: cell-based, human; conditions: IC50 and 2-fold IC50, 6 h (data not shown)
Method: Caspases activity in MCF-7 cells was detected using Caspase-Glo 3/7 and Caspase-Glo 9 Assay kits (Promega, Mannheim, Germany) as previously reported. […] Luminescence was measured using an BioTek Synergy™ HT multi-detection microplate reader. Caspase activity was expressed as percentage of the untreated control.

[1] = tested on: six tested cancer cell lines (A549, SPC212, DLD-1, Caco-2, MCF-7, HepG2); test: Neutral red uptake assay, statements over the six tested cancer cell lines; type: cell-based, human
From the text: (§1) Six human cancer cell lines and one normal cell line were used in this study. They included A549 human non-small cell lung cancer (NSCLC) cell line, obtained from the Institute for Fermentation, Osaka (IFO, Japan) and provided by Prof. Dr. Tansu Koparal (Anadolu University, Eskisehir, Turkey), SPC212 human mesothelioma cell line obtained from American Type Culture Collection (ATCC) and provided by Dr. Asuman Demiroğlu Zergeroğlu (Gebze Technical University, Kocaeli, Turkey), DLD-1 colorectal adenocarcinoma cell lines obtained from ATCC (CCL-221), Caco2 colorectal adenocarcinoma cells (ATCC, HTB-37) obtained from the ŞAP Institute of Turkey (Ankara), HepG2 hepatocarcinoma cells (ATCC, HB-8065) and MCF-7 breast adenocarcinoma cells (ATCC, HTB-22) were provided by Prof. Dr. Tansu Koparal (Anadolu University, Eskisehir, Turkey). The normal CRL2120 human skin fibroblasts were obtained from ATCC [CCD1094Sk (ATCC, CRL-2120)]. The cells were maintained as a monolayer in DMEM medium (Sigma-aldrich, Munich, Germany) medium supplemented with 10% fetal calf serum and 1% penicillin (100 U/mL)-streptomycin (100 μg/mL) in a humidified 5% CO2 atmosphere at 37 °C.
(§2) The cytotoxicity of samples was performed by NR uptake assay as previously described. This method is based on the ability of viable cells to incorporate and bind the supravital dye NR in the lysosomes. The procedure is cheaper and more sensitive than other cytotoxicity tests. […] Briefly, cells were detached by treatment with 0.25% trypsin/EDTA (Invitrogen) and an aliquot of 1 × 10^4 cells was placed in each well of a 96-well cell culture plate […]. The cells were allowed to attach overnight and subsequently treated with different concentrations of the 14 compounds. Each of the studied samples was immediately added in varying concentrations in additional 100 μL of culture medium to obtain a total volume of […]/well. After 72 h incubation in humidified 5% CO2 atmosphere at 37 °C, the medium was removed and 200 μL fresh medium containing 50 μg/mL NR was added to each well and incubation continued for an additional 3 h at 37 °C in 5% CO2 atmosphere. The dye medium was then removed and each well was then washed rapidly with 200 μL phosphate buffer saline (PBS) followed by addition of 200 μL of acetic acid-water-ethanol in water (1:49:50). The plates were kept for 15 min at room temperature to extract the dye and then shaken for a few minutes on a GFL 3012 shaker (Gesellschaft für Labortechnik mbH, Burgwedel, Germany). Absorbance was measured on ELx 808 Ultra Microplate Reader (Biotek) equipped with a 540 nm filter. Each assay was done at least three times, with three replicates each. The viability was evaluated based on a comparison with untreated cells. The IC50 values represent the sample’s concentrations required to inhibit 50% of cell proliferation and were calculated from a calibration curve by linear regression using Microsoft Excel.

[2] = tested on: SPC212 human mesothelioma cell line; test: Neutral red (NR) uptake cytotoxicity assay, SPC212; type: cell-based; conditions: for selectivity index SPC212: IC50 in CRL2120 normal fibroblasts divided by IC50 in SPC212
From the text: as §1, §2

MCF-7 cells [3] = test: Mitochondrial membrane potential (MMP) analysis, JC-1 staining, flow cytometry; type: cell-based, human; conditions: IC50 (C3), 72 h, control 4.3%
Method: The MMP was analyzed in MCF-7 cells by 5,5′,6,6′-tetrachloro-1,1′,3,3′-tetraethylbenzimidazolylcarbocyanine iodide) (JC-1; Biomol, Hamburg, Germany) staining as previously reported. […] Subsequently, cells were measured in a BD FACS Aria I Cell Sorter Flow Cytometer (Becton-Dickinson, Germany). The JC-1 signal was measured at an excitation of 561 nm (150 mW) and detected using a 586/15 nm band-pass filter. The signal was analyzed at 640 nm excitation (40 mW) and detected using a 730/45 nm bandpass filter. Cytographs were analyzed using BD FACSDiva™ Flow Cytometry Software Version 6.1.2 (Becton-Dickinson). All experiments were performed at least in triplicate.

MCF-7 cells [4] = test: Measurement of reactive oxygen species (ROS), DCFH-DA; type: cell-based, human; conditions: at IC50, 24 h
Method: This is a cell-based assay for measuring hydroxyl, peroxyl, or other reactive oxygen species activity within a cell. The assay employs the cell-permeable fluorogenic probe 2′,7′-dichlorodihydrofluorescin diacetate (DCFH-DA). DCFH-DA is diffused into cells and is deacetylated by cellular esterases to non-fluorescent 2′,7′-dichlorodihydrofluorescin (DCFH), which is rapidly oxidized to highly fluorescent 2′,7′-dichlorofluorescein (DCF) by ROS. […] After addition of 100 μL 1× DCFH-DA/DMEM solution to cells and incubation at 37 °C for 30–60 min, the fluorescence was measured using SpectraMax® M5 Microplate Reader (Molecular Devices, Biberach, Germany) at 480/530 nm. All experiments were performed at least in triplicate.

[5] = tested on: MCF-7 breast adenocarcinoma cells; test: Neutral red (NR) uptake cytotoxicity assay, MCF-7; type: cell-based, human; conditions: for IC50: Homo sapiens, MCF7, 72 h, neutral red assay, 72 h incubation, read-out: IC50 MCF-7; for selectivity index MCF-7: IC50 in CRL2120 normal fibroblasts divided by IC50 in MCF-7
From the text: as §1, §2

Q: `CC1=CC(=O)c2c(O)cccc2C1=O` [Compound 4, 5-hydroxy-2-methyl-1,4-naphthalenedione] was tested. Which “activity of caspase 9” value (caspase 9 in MCF-7 cells) did it give?
A: no modification

Q: What about the “selectivity indexes (CRL2120 vs carcinoma cells), lower bound over the cancer cell lines” value ([1]; IC50 CRL2120 / IC50 cancer cell line) of the same compound?
A: > 59

Q: And the IC50 ([2]; Homo sapiens, 72 h, neutral red assay, 72 h incubation, read-out: IC50 SPC212)?
A: 0.27 ± 0.01 µM

Q: What about the “selectivity index SPC212” value [2] of the same compound?
A: 250.59

Q: And the “MMP, gate P2 (loss / depletion of MMP)” value (MCF-7 cells [3])?
A: 12.2%

Q: What about the “increase in ROS levels as compared with non-treated cells” value (MCF-7 cells [4]) of the same compound?
A: more than 3 fold

Q: And the IC50 [5]?
A: 0.06 ± 0.01 µM

Q: What about the “selectivity index MCF-7” value [5] of the same compound?
A: 1127.67

Q: `CCCCCCCCCCCCCC1=C(O)C(=O)C=C(O)C1=O` [Compound 9, 2,5-dihydroxy-3-tridecyl-2,5-cyclohexadiene-1,4-dione] was tested. Which “activity of caspase 9” value (caspase 9 in MCF-7 cells) did it give?
A: no modification

Q: What about the IC50 ([1]; Homo sapiens, bound valid for all six cancer cell lines, neutral red assay) of the same compound?
A: < 100 µM

Q: And the “selectivity index SPC212” value [2]?
A: 41.96

Q: And the “MMP, gate P2 (loss / depletion of MMP)” value (MCF-7 cells [3])?
A: 88.1%

Q: What about the “increase in ROS levels as compared with non-treated cells” value (MCF-7 cells [4]) of the same compound?
A: less than 2 fold

Q: And the IC50 [5]?
A: 16.9 ± 4.65 µM

Q: What about the “selectivity index MCF-7” value [5] of the same compound?
A: 5.62
